Results taken from paper PMC8920097, “Prediction of hERG inhibition of drug discovery compounds using biomimetic HPLC measurements” (ADMET & DMPK, 2021).
Where two headings read alike, the source gives them in different places.

Legend:
[1] = parameters: method as in doi:10.5599/admet.5.1.373; details: calibration set; predetermined by isocratic measurements; cited from earlier work
[2] = parameters: method as in PMID 11472245; details: cited from earlier work
[3] = system: AGP; assay: Literature % binding to AGP by equilibrium dialysis (calibration set); details: log k = log (%binding/(101-%binding)) from literature % binding
[4] = Phospholipid binding at pH 7.4 on IAM PC.DD2 HPLC column; format: physicochemical; parameters: key to CHI IAM: approximates acetonitrile concentration (%) in mobile phase at elution; details: for CHI IAM: pH 7.4; for log k IAM: pH 7.4, derived from CHI IAM by equation 1
Description: The phospholipid-binding was measured using an IAM PC.DD2 column with dimensions of 100 x 4.6 mm (Regis Technologies Inc., Morton Grove, IL, USA). The gradient retention times were measured using a 50 mM ammonium acetate mobile phase with the pH adjusted to 7.4. The mobile phase flow rate was 1.5 mL/min. […] The cycle time was 6 min, plus an additional 1 min equilibration time was applied while the injector prepared for the next injection. The gradient retention times were calibrated with the acetophenone homologues for which the CHI IAM values have been established using isocratic measurements. […] The CHI Index on the IAM column (CHI IAM) approximates the acetonitrile concentration in the mobile phase when the compound elutes. […] The CHI IAM values have been converted to log k IAM values derived from the CHI IAM values using equation 1. It represents the equivalent value derived from several isocratic measurements with extrapolated log retention factors to 100 % aqueous mobile phase. The log k IAM values can be converted to log K (IAM) values and show linear relationships with the octanol/water partition coefficients.

[5] = system: HSA; details: calibration set; log k = log (%binding/(101-%binding)) from literature % binding
[6] = Charge character of the drugs at pH 7.4; format: physicochemical
[7] = system: alpha-1-acid-glycoprotein (AGP); assay: Protein binding on Chiralpak AGP HPLC column; details: pH 7.4, Chiralpak AGP
Description: (§1) The measurement of the biomimetic properties of the available drugs was conducted in our laboratories. Generic gradient HPLC methods were used to determine the chromatographic hydrophobicity Index (CHI) using mobile phases at three different pH values. The protein binding of the compounds was measured using immobilised human serum albumin (HSA), and alpha-1-acid-glycoprotein (AGP) stationary phases. The phospholipid-binding was measured using the immobilised artificial membrane (IAM) stationary phase. The aim was to establish relationships between the cardiotoxicity potential and the biomimetic binding properties of the drugs and to evaluate their predictive performance.

[8] = system: hERG channel; details: cited from earlier work
[9] = system: AGP; details: calibration set; equilibrium dialysis; literature; cited from earlier work
[10] = physchem; details: for chromatographic logD: Gemini NX-C-18 reversed-phase HPLC column, pH 7.4
Description: The Chromatographic Hydrophobicity Index (CHI) was measured using the compounds’ calibrated gradient retention times obtained from an Agilent 1100 HPLC fitted with a Gemini NX-C-18 column (Phenomenex Ltd Macclesfield, UK) with dimensions of 50 x 3 mm and 5 μm particle size. […] The mobile phase B was 100 % acetonitrile. […] An acetonitrile linear gradient was used from 0 to 100 %. […] The retention time values for a standard set of compounds listed in Table 1 were used to convert the drug retention times to CHI values.

[11] = biological target: human serum albumin (HSA) (Homo sapiens, UniProt P02768); assay: Protein binding on Chiralpak HSA HPLC column; details: pH 7.4, Chiralpak HSA
Sequence of human serum albumin (HSA) (P02768 25-609): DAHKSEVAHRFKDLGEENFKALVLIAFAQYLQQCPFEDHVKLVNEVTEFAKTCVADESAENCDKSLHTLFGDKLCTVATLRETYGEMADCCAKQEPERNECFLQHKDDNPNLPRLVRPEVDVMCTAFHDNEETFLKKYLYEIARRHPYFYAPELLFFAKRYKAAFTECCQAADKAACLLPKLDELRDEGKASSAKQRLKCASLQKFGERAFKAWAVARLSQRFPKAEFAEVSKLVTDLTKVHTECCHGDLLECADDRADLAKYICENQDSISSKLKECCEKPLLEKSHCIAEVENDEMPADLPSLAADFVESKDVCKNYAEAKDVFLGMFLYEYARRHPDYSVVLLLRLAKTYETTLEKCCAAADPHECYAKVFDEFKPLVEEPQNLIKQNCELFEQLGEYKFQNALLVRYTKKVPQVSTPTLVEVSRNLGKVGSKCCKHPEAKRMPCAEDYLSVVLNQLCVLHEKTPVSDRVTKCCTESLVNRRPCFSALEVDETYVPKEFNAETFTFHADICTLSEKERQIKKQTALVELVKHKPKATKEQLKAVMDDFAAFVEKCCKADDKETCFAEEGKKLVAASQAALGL
Description: as §1

[12] = system: HSA; details: calibration set; equilibrium dialysis; literature; cited from earlier work
[13] = literature values, mean where several reported, molar
[14] = reversed-phase HPLC, Gemini NX-C-18 column (50 x 3 mm, 5 µm)

SMILES | log k IAM [4] | Charge [6] | log k AGP [7] | chromatographic logD [10] | log k HSA [11] | chromatographic logP [10, 14] | further results
CC(=O)Nc1ccccc1 [Acetanilide] | – | – | – | – | – | – | CHI IAM [1]: 11.5
CC(=O)c1ccccc1 [Acetophenone] | – | – | – | – | – | – | CHI at pH 2.6 ([2]; calibration set): 64.1; CHI at pH 7.4 ([2]; calibration set): 65.1; CHI at pH 10.5 ([2]; calibration set): 64.1; CHI IAM [1]: 17.2
c1ccc2[nH]cnc2c1 [Benzimidazole] | – | – | – | – | – | – | CHI at pH 2.6 ([2]; calibration set): 6.3; CHI at pH 7.4 ([2]; calibration set): 34.3; CHI at pH 10.5 ([2]; calibration set): 30.6
CCCC(=O)c1ccccc1 [Butyrophenone] | – | – | – | – | – | – | CHI at pH 2.6 ([2]; calibration set): 87.3; CHI at pH 7.4 ([2]; calibration set): 87.5; CHI at pH 10.5 ([2]; calibration set): 87.3; CHI IAM [1]: 32.0
COc1cc2c(c(OC)c1OC)-c1ccc(OC)c(=O)cc1[C@@H](NC(C)=O)CC2 [Colchicine] | – | – | – | – | – | – | CHI at pH 2.6 [2]: 43.9; CHI at pH 7.4 [2]: 45.0; CHI at pH 10.5 [2]: 43.9
O=C(O)Cc1ccccc1Nc1c(Cl)cccc1Cl [Diclofenac] | – | – | – | – | – | – | log k AGP [3]: 0.2
CCCCCCC(=O)c1ccccc1 [Heptanophenone] | – | – | – | – | – | – | CHI IAM [1]: 45.7
CCCCCC(=O)c1ccccc1 [Hexanophenone] | – | – | – | – | – | – | CHI IAM [1]: 41.8
c1ccc2[nH]ccc2c1 [Indole] | – | – | – | – | – | – | CHI at pH 2.6 [2]: 72.1; CHI at pH 7.4 [2]: 71.5; CHI at pH 10.5 [2]: 72.1
COc1ccc2c(c1)c(CC(=O)O)c(C)n2C(=O)c1ccc(Cl)cc1 [Indomethacin] | 1.81 | Acidic | 0.18 | 1.47 | – | – | CHI IAM [4]: 30.11; log k AGP [3]: 0.1; log k HSA [5]: 1.8; hERG pIC50 [8]: 3.72; % AGP [9]: 56.0%; chromatographic logP [10]: 3.31
COC(=O)C1=C(C)NC(C)=C(C(=O)OC(C)C)C1c1cccc2nonc12 (centres unmarked) [Isradipine] | 2.21 | Neutral | 1.32 | 3.25 | 1.19 | 3.29 | hERG pIC50 [8, 13]: 5.71
Nc1nnc(-c2cccc(Cl)c2Cl)c(N)n1 [Lamotrigine] | 1.49 | Weak Base | -0.33 | 0.86 | 0.16 | 0.81 | CHI IAM [4]: 23.25; hERG pIC50 [8]: 3.55
CCCCN1CCCC[C@H]1C(=O)Nc1c(C)cccc1C [Levobupivacaine] | 2.34 | Weak Base | 1.25 | 3.25 | 0.13 | 4.2 | CHI IAM [4]: 41.83; hERG pIC50 [8, 13]: 5.48
COCCc1ccc(OCC(O)CNC(C)C)cc1 (centres unmarked) [Metoprolol] | 2.05 | Basic | -0.27 | 0.77 | -0.72 | – | CHI IAM [4]: 35.38; hERG pIC50 [8, 13]: 3.84
COC(=O)C1=C(C)NC(C)=C(C(=O)OCCN(C)Cc2ccccc2)C1c1cccc([N+](=O)[O-])c1 (centres unmarked) [Nicardipine] | – | – | – | – | – | – | log k AGP [3]: 0.8; log k HSA [5]: 1.2; % AGP [9]: 87.0%
CNC(=C[N+](=O)[O-])NCCSCc1csc(CN(C)C)n1 [Nizatidine] | – | – | – | – | – | – | log k AGP [3]: -0.2; %HSA [12]: 20.4%; log k HSA [5]: -0.6; % AGP [9]: 37.1%

SMILES | log k IAM [4] | Charge [6] | log k AGP [7] | chromatographic logD [10] | log k HSA [11] | chromatographic logP [10, 14] | further results
CCCCCCCC(=O)c1ccccc1 [Octanophenone] | – | – | – | – | – | – | CHI IAM [1]: 49.4
Cc1nccn1CC1CCc2c(c3ccccc3n2C)C1=O (centres unmarked) [Ondansetron] | 2.22 | Weak Base | 1.30 | 1.33 | 0.54 | 1.66 | CHI IAM [4]: 39.01; hERG pIC50 [8, 13]: 5.73
CCCN1C[C@H](CSC)C[C@@H]2c3cccc4[nH]cc(c34)C[C@H]21 [Pergolide] | 2.85 | Basic | 1.04 | 2.47 | 0.73 | 3.81 | hERG pIC50 [8, 13]: 6.52
c1ccc(-c2nn[nH]n2)cc1 [Phenyl tetrazole] | – | – | – | – | – | – | CHI at pH 2.6 ([2]; calibration set): 42.2; CHI at pH 7.4 ([2]; calibration set): 23.6; CHI at pH 10.5 ([2]; calibration set): 16.0
Cn1c(=O)c2nc(-c3ccccc3)[nH]c2n(C)c1=O [Phenyl theophylline] | – | – | – | – | – | – | CHI at pH 2.6 ([2]; calibration set): 51.7; CHI at pH 7.4 ([2]; calibration set): 51.2; CHI at pH 10.5 ([2]; calibration set): 51.3
O=C1NC(=O)C(c2ccccc2)(c2ccccc2)N1 [Phenytoin] | 1.78 | Weak Acid | 0.15 | 1.73 | 0.69 | 1.85 | CHI IAM [4]: 29.66; hERG pIC50 [8]: 3.71
O=c1[nH]c2ccccc2n1C1CCN(CCCC(c2ccc(F)cc2)c2ccc(F)cc2)CC1 [Pimozide] | 2.83 | Weak Base | 1.47 | 3.03 | 1.41 | 3.89 | hERG pIC50 [8]: 6.43
CCC(=O)c1ccccc1 [Propiophenone] | – | – | – | – | – | – | CHI at pH 2.6 ([2]; calibration set): 77.4; CHI at pH 7.4 ([2]; calibration set): 77.4; CHI at pH 10.5 ([2]; calibration set): 77.4; CHI IAM [1]: 25.9
CCCOC(C(=O)OC1CCN(C)CC1)(c1ccccc1)c1ccccc1 [Propiverine] | 3.12 | Basic | 0.94 | 3.84 | 1.01 | 5.05 | hERG pIC50 [8, 13]: 5.22
CC(C)NCC(O)COc1cccc2ccccc12 (centres unmarked) [Propranolol] | 2.36 | Basic | 0.84 | – | – | – | log k AGP [3]: 0.8; %HSA [12]: 66.6%; log k HSA [5]: 0.3; % AGP [9]: 86.0%
COc1ccc(CN(CCN(C)C)c2ccccn2)cc1 [Pyrilamine] | 2.56 | Basic | 0.49 | 1.72 | 0.44 | 3.32 | CHI IAM [4]: 46.62; hERG pIC50 [8]: 5.18
CC[C@H]1OC(=O)[C@H](C)[C@@H](O[C@H]2C[C@@](C)(OC)[C@@H](O)[C@H](C)O2)[C@H](C)[C@@H](O[C@@H]2O[C@H](C)C[C@H](N(C)C)[C@H]2O)[C@](C)(O)C[C@@H](C)/C(=N\OCOCCOC)[C@H](C)[C@@H](O)[C@]1(C)O [Roxithromycin] | 2.78 | Basic | 0.60 | 1.95 | -0.07 | 3.7 | CHI IAM [4]: 51.33; hERG pIC50 [8, 13]: 4.44
CCOc1ccccc1OCCN[C@H](C)Cc1ccc(OC)c(S(N)(=O)=O)c1 [Tamsulosin] | 2.00 | Basic | 0.60 | 1.43 | 0.36 | 2.01 | hERG pIC50 [8, 13]: 4.89
Cn1c(=O)c2[nH]cnc2n(C)c1=O [Theophylline] | – | – | – | – | – | – | CHI at pH 2.6 ([2]; calibration set): 17.9; CHI at pH 7.4 ([2]; calibration set): 18.4; CHI at pH 10.5 ([2]; calibration set): 5.0
CCCCC(=O)c1ccccc1 [Valerophenone] | – | – | – | – | – | – | CHI at pH 2.6 ([2]; calibration set): 96.4; CHI at pH 7.4 ([2]; calibration set): 96.2; CHI at pH 10.5 ([2]; calibration set): 96.4; CHI IAM [1]: 37.3
O=C1Cc2cc(CCN3CCN(c4nsc5ccccc45)CC3)c(Cl)cc2N1 [Ziprasidone] | 2.62 | Weak Base | 1.09 | 2.98 | 1.42 | 2.96 | CHI IAM [4]: 47.92; hERG pIC50 [8]: 6.44
